Source: patent publication US20080311601A1, “Methods for Prediction and Prognosis of Cancer, and Monitoring Cancer Therapy” (priority 2005, published 2008)

System: VEGF
Assay: VEGF ELISA on plasma from renal cell carcinoma patients treated with Sorafenib
Format: in vivo, human
Protocol: Duplicate samples were used to measure the VEGF level using a VEGF ELISA (R&D Systems, Minneapolis, Minn.) per the manufacturers directions. The mean value of the duplicate measurements was determined for each patient.

## CNC(=O)c1cc(Oc2ccc(NC(=O)Nc3ccc(Cl)c(C(F)(F)F)c3)cc2)ccn1 [Sorafenib]
Baseline (pretreatment)
  Median VEGF: 237.4 pg/mL
Cycle 1 Day 21
  Median VEGF: 301.6 pg/mL
Cycle 3 Day 1
  Median VEGF: 309.0 pg/mL
At both time points (Cycle 1 Day 21, Cycle 3 Day 1), p<<0.01, paired t-test
  change of VEGF levels from baseline: increase significantly from baseline
